Results from paper PMC11089504 (Journal of medicinal chemistry, 2024).
Several values for one entry are separate records, joined by “and”; a condition that tells them apart may be missing. Equal entries are not always repeated.

Legend:
[1] = test system: human CYP51; settings: cited from earlier work
[2] = test system: T. cruzi CYP51; settings: 2-fold molar excess over the enzyme ref 61; cited from earlier work
[3] = target: T1, A. castellanii CYP51 (Acanthamoeba castellanii, UniProt L8GJB3, V2A); settings: full-length enzyme, type I spectral response
T1 sequence (L8GJB3 1-486 V2A): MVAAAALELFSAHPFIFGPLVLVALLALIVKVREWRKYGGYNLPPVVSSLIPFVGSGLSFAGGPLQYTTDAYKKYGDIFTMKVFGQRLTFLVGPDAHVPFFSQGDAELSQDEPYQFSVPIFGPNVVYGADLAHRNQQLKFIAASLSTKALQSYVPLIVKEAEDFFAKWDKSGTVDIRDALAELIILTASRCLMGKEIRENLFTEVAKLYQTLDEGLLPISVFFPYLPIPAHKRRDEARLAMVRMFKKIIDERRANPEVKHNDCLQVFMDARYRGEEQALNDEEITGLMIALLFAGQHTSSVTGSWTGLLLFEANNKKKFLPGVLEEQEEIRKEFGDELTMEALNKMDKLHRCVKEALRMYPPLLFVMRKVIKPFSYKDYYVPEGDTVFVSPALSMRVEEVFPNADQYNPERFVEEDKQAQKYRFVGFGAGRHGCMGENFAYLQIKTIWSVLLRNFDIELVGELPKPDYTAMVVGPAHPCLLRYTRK
T1 sequence (P00388 2-678 partner): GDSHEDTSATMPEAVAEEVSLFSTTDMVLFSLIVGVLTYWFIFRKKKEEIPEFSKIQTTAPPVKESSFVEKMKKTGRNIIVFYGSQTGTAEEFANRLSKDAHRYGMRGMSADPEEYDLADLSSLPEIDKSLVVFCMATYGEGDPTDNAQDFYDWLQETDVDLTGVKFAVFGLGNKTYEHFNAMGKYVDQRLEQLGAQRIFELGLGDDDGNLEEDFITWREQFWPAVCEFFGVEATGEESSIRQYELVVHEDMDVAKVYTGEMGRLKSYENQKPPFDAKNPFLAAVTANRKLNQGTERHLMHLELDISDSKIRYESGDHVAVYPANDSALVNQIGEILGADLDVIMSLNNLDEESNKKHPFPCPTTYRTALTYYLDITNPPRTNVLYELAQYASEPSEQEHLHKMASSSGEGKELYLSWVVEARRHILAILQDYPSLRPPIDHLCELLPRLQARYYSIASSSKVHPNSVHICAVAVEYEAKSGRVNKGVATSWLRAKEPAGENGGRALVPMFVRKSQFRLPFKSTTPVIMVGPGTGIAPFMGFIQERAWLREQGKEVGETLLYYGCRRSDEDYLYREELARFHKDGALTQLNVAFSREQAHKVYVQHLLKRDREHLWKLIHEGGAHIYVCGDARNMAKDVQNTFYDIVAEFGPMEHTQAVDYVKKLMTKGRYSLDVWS

[4] = target: T1, A. castellanii CYP51; settings: obtusifoliol over lanosterol

Structure (SMILES)	binding to human CYP51 [1]	inhibition of T. cruzi CYP51 [2]	low- to high-spin transition in the heme iron [3]	fold higher catalytic efficiency than for lanosterol (substrate preference) [4]
O[C@@](Cn1cnnn1)(c1ccc(F)cc1F)C(F)(F)c1ccc(-c2ccc(OCC(F)(F)F)cc2)cn1 [VT1161, (R)-2-(2,4-difluorophenyl)-1,1-difluoro-3-(lH-tetrazol-1-yl)-1-(5-(4-(2,2,2-trifluoroethoxy)phenyl)pyridin-2-yl)propan-2-ol]	does not bind	~ 95%	–	–
CC(C)=CCC[C@@H](C)[C@H]1CC[C@@]2(C)C3=C(CC[C@]12C)[C@@]1(C)CC[C@H](O)C(C)(C)[C@@H]1CC3 [lanosterol]	–	–	~15%	–
C=C(CC[C@@H](C)[C@H]1CC[C@@]2(C)C3=C(CC[C@]12C)[C@@]1(C)CC[C@H](O)[C@@H](C)[C@@H]1CC3)C(C)C [obtusifoliol]	–	–	~ 60%	~ 100 fold and 100 fold
